From US8999957B2, “Heterocyclic compounds as ERK inhibitors” (Merck Sharp & Dohme Corp., priority 2010, dated 2015)

Columns and labels:
[1] = target: fully phosphorylated, active Mouse ERK2 protein (Mus musculus (Mouse), UniProt P63085); assay: Active ERK2 (aERK) IMAP assay, condition 1; assay type: biochemical; conditions: aERK assay condition 1, 30 μM ATP
Method: Active ERK2 (aERK) Assay: (Unless Indicated Otherwise, the Data Provided for aERK was obtained using Condition 1)
Activated ERK2 activity was also determined in the IMAP assay format using the procedure outlined above. […] Reactions proceeded for 30 minutes before termination by addition of 60 μl IMAP detection beads in binding buffer. Plates were read as above after 30 minute binding equilibration.

[2] = target: inactive ERK2 (unphosphorylated Mouse ERK2 protein) (Mus musculus (Mouse), UniProt P63085); assay: Coupled ERK2 (cERK) assay, coupled MEK1/ERK2 IMAP assay; assay type: biochemical; conditions: 30 μM ATP
Method: 14 μl of kinase buffer (10 mM Tris.HCl pH 7.2, 10 mM MgCl2, 0.01% Tween-20, 1 mM DTT) containing 0.4 ng unphosphorylated Mouse ERK2 protein was added to each well of a black 384-well assay plate. […] DMSO concentration during initial incubation is 6.7%. ERK2 activity was determined to be insensitive to DMSO concentrations up to 20%. ERK2 was then activated and it's kinase activity measured by the addition of 10 μl kinase buffer with the following components (final concentration per reaction): 2 ng active (phosphorylated) human MEK1 protein and 4 μM (total) ERK2 IMAP substrate peptides (3.9 μM unlabeled […]-CONH2 and 100 nM […](5-carboxyfluorescein)-CONH2) and 30 μM ATP. DMSO concentration during ERK activation was 4%. After one hour, reactions were terminated by addition of 60 μl IMAP detections beads in binding buffer (Molecular Devices). Binding was allowed to equilibrate for 30 minutes before reading the plate on an LJL Analyst Fluorescence Polarization plate reader. […] Active compounds were reconfirmed in an independent assay.

[3] = target: ERK protein (Mus musculus, UniProt P63085); assay: TdF (Temperature Dependence Fluorescence, thermal shift) assay for ERK; assay type: binding; conditions: 3 μM ERK protein, uncertainty estimated ±50%, read-out: Kd TdF
Description: Assays: TdF Assay for ERK […] The TdF assay was mainly conducted in the 96-well based CHROMO-4 real time fluorescence plate reader (BioRad). The Sypro Orange (Sigma-Aldrich), environmentally sensitive fluorescence dye, was used to monitor the protein folding-unfolding transition. Protein-ligand binding was gauged by the change (or shift) in the unfolding transition temperature (ΔTm) acquired at protein alone with respect to protein in the presence of ligand of interest. Compound of interest was first prepared in DMSO stock (typical concentration: 10 mM). […] Final percentage of DMSO resided in the sample was 2%. The sample plate was heated from 30° C. to 90° C. with thermal ramping rate of 1° C./min. […] The instrument thermal stability was ±0.2° C. The melting temperatures (Tm) for ERK protein under aforementioned conditions occurred at 61.0±0.2° C. and 64.8±02° C. respectively. Theoretical Basis for TdF-Based Ligand Binding Affinity Constant […] In brief, the binding constant of the ligand at the Tm is expressed as below: [formula] where T0 is the midpoint of unfolding for unliganded protein and Tm is the midpoint of unfolding in presence of ligand. [LTm] is free ligand at Tm. The ΔHu and ΔCpu are the enthalpy of unfolding and heat capacity change of unfolding for the protein respectively. Following algorithm derived by Winsor and coworker, the T0, ΔHu and ΔCpu can be determined separately from nonlinear regression fitting the protein alone melting curve: Where F(T) is the observed fluorescence intensity at any temperature T, Yn and Yu are the predicted fluorescence intensities for fully folded and unfolded protein, respectively; mn and mu are slope correction for changes in Yn and Yu with respect to changes in temperature (analogously replace T0 with Tm in the above equation for liganded protein to yield Tm). […] [formula] where ΔHL (T) is the van't Hoff enthalpy of ligand binding at temperature T and ΔCpL is the heat capacity upon ligand binding. For simplicity, the ΔCpL and ΔHL (T) were set to zero and −7 kcal/mol respectively.

Chain of ERK protein (P63085 2-358 limits assumed): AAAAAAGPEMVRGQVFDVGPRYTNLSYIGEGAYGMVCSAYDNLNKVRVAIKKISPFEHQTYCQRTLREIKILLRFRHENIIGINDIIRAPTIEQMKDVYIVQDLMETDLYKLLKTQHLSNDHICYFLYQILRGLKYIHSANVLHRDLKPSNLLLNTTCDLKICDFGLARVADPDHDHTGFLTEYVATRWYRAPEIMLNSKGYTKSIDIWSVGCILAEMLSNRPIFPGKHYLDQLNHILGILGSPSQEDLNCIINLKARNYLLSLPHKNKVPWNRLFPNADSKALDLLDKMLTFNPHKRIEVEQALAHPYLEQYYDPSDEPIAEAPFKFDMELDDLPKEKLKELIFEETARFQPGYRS
Chain of fully phosphorylated, active Mouse ERK2 protein (P63085 whole entry): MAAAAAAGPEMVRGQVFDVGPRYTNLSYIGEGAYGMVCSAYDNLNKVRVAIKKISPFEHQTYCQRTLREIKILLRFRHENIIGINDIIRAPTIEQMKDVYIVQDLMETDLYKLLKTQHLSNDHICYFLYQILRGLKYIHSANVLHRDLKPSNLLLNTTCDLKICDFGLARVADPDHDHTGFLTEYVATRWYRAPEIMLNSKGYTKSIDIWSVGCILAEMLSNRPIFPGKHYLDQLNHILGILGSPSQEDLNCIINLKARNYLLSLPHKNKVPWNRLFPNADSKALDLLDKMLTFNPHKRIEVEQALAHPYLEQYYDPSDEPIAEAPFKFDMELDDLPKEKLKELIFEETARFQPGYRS
Chain of inactive ERK2 (unphosphorylated Mouse ERK2 protein) (P63085 whole entry): as above

CN1CC(NC(=O)c2ccc3[nH]nc(-c4ccncc4)c3c2)CC(c2ccccc2)C1 (stereo not drawn) [drawing 158, N-(1-methyl-5-phenylpiperidin-3-yl)-3-(pyridin-4-yl)-1H-indazole-5-carboxamide] showed an IC50 [1] of 2.6 nM, an IC50 [2] of 7.4 nM and a Kd [3] of 1.4 nM.

In the case of O=C(N[C@H]1CCCN(Cc2ccccc2)C1)c1ccc2[nH]nc(-c3ccncc3)c2c1, the IC50 [1] is reported as 485 nM, the IC50 [2] is reported as 304 nM and the Kd [3] is reported as 118 nM.

Molecule CC(C)Oc1ccc(-c2n[nH]c3ccc(C(=O)N[C@@H]4CCCN(Cc5ccccc5F)C4)cc23)cc1 has an IC50 [1] of 275 nM, an IC50 [2] of 443 nM and a Kd [3] of 1.2 nM.

Work on O=C(N[C@H]1CCCN(Cc2ccccc2F)C1)c1ccc2[nH]nc(-c3ccncc3)c2c1 yielded an IC50 [1] of 224 nM, an IC50 [2] of 166 nM and a Kd [3] of 38 nM.

O=C(NC1CCCN(Cc2ccccc2)C1)c1ccc2[nH]nc(-c3ccc4c(c3)CCO4)c2c1 (stereo not drawn) gave an IC50 [1] of 134 nM, an IC50 [2] of 172 nM and a Kd [3] of 1.4 nM.

O=C(N[C@@H]1CCCN(Cc2ccccc2F)C1)c1ccc2[nH]nc(-c3ccc4c(c3)CCO4)c2c1 gave an IC50 [1] of 52.1 nM, an IC50 [2] of 48.6 nM and a Kd [3] of 0.61 nM.

Work on O=C(N[C@@H]1CCCN(Cc2ccccc2F)C1)c1ccc2[nH]nc(-c3ccncc3)c2c1 yielded an IC50 [1] of 5.5 nM, an IC50 [2] of 1.1 nM and a Kd [3] of 0.6 nM.

O=C(NC1CCCN(Cc2ccccc2F)C1)c1ccc2[nH]nc(-c3ccc4c(c3)CCO4)c2c1 (stereo not drawn) gave an IC50 [1] of 284 nM, an IC50 [2] of 231 nM and a Kd [3] of 2.6 nM.
